Laboratory results published in patent US8114641B2, “Methylbutanol as an advanced biofuel” (Synthetic Genomics, Inc., priority 2007, dated 2012).
Like-named read-outs stand apart in the source and are kept apart here.

How the values were obtained:
[1] = Physical properties of alcohol fuels and gasoline; format: physicochemical
[2] = for Energy Content / Pump Octane (R + M)/2: 10% blend in gasoline; for Pump Octane (R + M)/2: RBOB with Pump Octane 80.85 and RVP 7.37; for Reid Vapor Pressure: measured with 9.5% volumetric blend in RBOB
[3] = Fuel properties of the neat fuel; details: for Pump Octane (R + M)/2: extrapolated from tests on blended fuels (blending octanes)
[4] = based on literature review; cited from earlier work
[5] = Ether fuel testing (ULSD and hexadecane blends, neat ether); format: physicochemical
[6] = Keto acid decarboxylase activity on pyruvate, crude extracts; format: biochemical; details: crude extract, S. cerevisiae PDC1 deletion host; sigmoidal curves
Protocol: (§1) The Lactococcus lactis KdcA and S. cerevisiae and P. stipitis PDCs were cloned into yeast expression vector p415 under the control of TEF promoter. The host strain was a PDC1 deletion strain. Crude extracts were prepared for enzymatic assays by incubating cell pellet with CelLytic (Sigma), followed by bead beating. The decarboxylase reaction was performed in 100 mM Citrate Phosphate buffer with 1 mM Thiamine diphosphate, 1 mM MgCl2 and 50 μM to 20 mM aldehyde. The assay was coupled to an alcohol dehydrogenase which enabled continuous monitoring of NADH or NADPH oxidation at 340 nm.
Pyruvate is the target for multiple enzymes and a decarboxylation of the compound can lead to the production of acetaldehyde and subsequently ethanol. To prevent decarboxylation of pyruvate and increase 2-MBO production, a keto acid decarboxylase with a very high Km for pyruvate is ideal. […] The kinetic curves obtained with pyruvate as substrate were sigmoidal. This could be due to the fact that there are multiple enzymes in the crude extract with different Km for pyruvate. The final curve is therefore the superposition of individual curves. Absolute Km values […]. (FIG. 26.)

[7] = Keto acid decarboxylase activity on 2-keto-3-methylvalerate, PDC/KDC-ADH6 coupled assay with crude extracts; format: biochemical; details: for Km: enzyme expressed from p415 TEF in S. cerevisiae PDC1 deletion strain, read-out: Km 2 keto 3 methyl valerate
Protocol: as §1
The substrate specificity of the crude extract overexpressing different PDC/Kdcs was tested with a broad range of aldehydes. This included acetaldehyde, butyraldehyde and 2-methylbutyraldehyde. The concentration of the aldehydes was varied from 50 μM to 20 mM to determine the Km and Vmax values.
2-keto-3-methylvalerate (2K3MV) was tested for decarboxylation and subsequent reduction using PDC/KDC-ADH6 coupled assays.

[8] = Keto acid decarboxylase activity on 2-keto butyrate, NADH dependent coupled assay with yeast ADH1; format: biochemical
Protocol: as §1
NADH dependent coupled assays with yeast ADH1 were carried out to determine the decarboxylase activity of yeast and heterologous enzymes on the substrate 2 keto butyrate (2KB). 2KB is an intermediate in the production of 2-methylbutanol. A high decarboxylase activity on 2KB can lead to its conversion to propanal and reduce the yield of 2-MBO. […] (See FIG. 25 a-g.) The enzyme with the lowest Km for 2-ketobutyrate is yeast PDC1 and therefore the corresponding gene needs to be deleted in the 2-MBO production strain (data not shown).

[9] = Enzyme assays of overexpressed ADH6 and ADH7 with crude extracts; format: biochemical; details: NADPH dependent
Protocol: Yeast ADH6 and ADH7 have been reported as broad substrate specificity alcohol dehydrogenases. These enzymes were therefore overexpressed in S. cerevisiae under the control of TEF promoter and enzyme assays were carried out with crude extracts. Both ADH6 and ADH7 were active on 2-methylbutanal and were NADPH dependent reductases.

[10] = Aldehyde reductase assay of purified ADH6 on 2-methyl butyraldehyde; format: biochemical
Protocol: Enzyme assays for aldehyde reductase activity were carried out in 100 mM citrate phosphate buffer pH6.2, 0.5 mM NADPH and 0.05 to 20 mM substrate (acetaldehyde or 2-methylbutanal). The reaction was monitored for 5 minutes at 340 nm for oxidation of NADPH to NADP+.

[11] = Endpoint assay for acetolactate synthase activity with pyruvate as substrate; format: biochemical; details: colorimetric detection at 546 nm, expressed in yeast
Protocol: FIG. 23 (a-d.) Endpoint assays for acetolactate synthase activity were carried out using pyruvate as substrate. The resulting acetolactate was converted to […] under acidic conditions. Acetone was reacted with α-naphtha for colorimetric detection at 546 nm. […] The reaction was only moderately subject to feedback inhibition by leucine, isoleucine and valine (b, c and d) which could be due to longer reaction times.

[12] = crude extract, S. cerevisiae PDC1 deletion host

CCC(C)CO (stereo not drawn) [2-MBO, 2-methyl-1-butanol]
Boiling Point, max [1]: 130 °C
Flash Point, min [1]: 43 °C
Freezing Point, max [1]: −70 °C
Energy Content [2]: 113,963 BTU/gal
Pump Octane (R + M)/2 [2]: 83.0
Reid Vapor Pressure [2]: ~7^B psi
Energy Content [3]: 113,627 BTU/gal
Reid Vapor Pressure [3]: 2.3 psi
Pump Octane (R + M)/2 [3]: 102.0
Fuel Solubility in Water [4]: 3 wt %
Water Solubility in Fuel [4]: 9 wt %

CCC(C)COCC(C)CC (stereo not drawn) [2MBO-ether, 2-methyl-1-(2-methylbutoxy)butane]
Flash [5]: 118 ° F.
Solubility in Water [5]: <500 ppm

CC(C)CCO [3-MBO, 3-methyl-1-butanol]
Boiling Point, max [1]: 130 °C
Flash Point, min [1]: 43 °C
Freezing Point, max [1]: −117 °C
Energy Content [2]: 113,824 BTU/gal
Pump Octane (R + M)/2 [2]: 82.0
Reid Vapor Pressure [2]: ~7^B psi
Energy Content [3]: 112,240 BTU/gal
Reid Vapor Pressure [3]: 2.3 psi
Pump Octane (R + M)/2 [3]: 101.0
Fuel Solubility in Water [4]: 2 wt %
Water Solubility in Fuel [4]: 9 wt %

CCCCCCCCCCCCCCCC [Hexadecane, reference compound]
wear scar diameter [5]: 534 µm

B1: P. stipitis PDC 3/6: Pyruvate decarboxylase (PDC6) (PDC3) [Pichia stipitis], SEQ ID NO: 53 (protein, listed as Pichia stipitis)
chain: MTPVQETIRLPGTSSPTVPENVTLGEYLFLRISQANPKLRSIFGIPGDFNVDLLEHLYSPVVAGRDIKFIGLCNELNGAYTADGYSRAIGGLSTFISTFGVGELSAINGIAGSFAEFSPVLHIVGTTSLPQRDHAINGSDVRNHHHLIQNKNPLCQPNHDVYKKMIEPISVIQESLDSDLQRNMEKIDRVLVKILQESRPGYLFIPCDITNLIVPSYRLYETPLPLEIQLTTSGVEVLEDVVDAILFRLYKSKNPSLLSDCLTTRFNLQDKLNTLVAKLPSNFVKLFSTNMARNIDESLSNFVGLYFGIGSSSKEVSRQLERNTDFLINLGYFNAETTTAGYSNDFSNIEEYIEINPDYIKVNEHIINIKNPESGKRLFSMGQLLDALLFKLDLNKIENINNNNISYKFFPPTLYEQDNNTDYIPQTKLVDYLNENLQPGDLLVMDTMSFCFALPDIMLPQGVQLLTQNYYGSIGYALPSTFGATMAVNDLGSDRRIILIEGDGAAQMTIQELSSFLKYKEFLPNMPKIFLINNDGYTVERMIKGPTRSYNDINGEWSWTQLLGVFGDKEQKYHSTALLRNVNEFNKYFEFQRQTDNSKLEFIELIAGKYDCPLRFSEMFCKK
Vmax Pyruvate [6]: 12624 µM/min/mg
Vmax 2 keto 3 methyl valerate [7, 12]: 3359. uM/min/mg
Km ([7]; crude extract, listed as P. stipitis PDC3/6): 840 µM
Km ([7]; crude extract): 840 µM
Vmax on 2-keto-3-methylvalerate, fold higher than KdcA ([7]; relative to L. lactis KdcA): 3.4 fold
Vmax 2 keto butyrate [8, 12]: 5389 µM/min/mg
Km ([8]; crude extract, enzyme expressed from p415 TEF in S. cerevisiae PDC1 deletion strain): 6510 µM
Vmax on 2 keto butyrate, fold higher than KDCA ([8]; relative to L. lactis KdcA): about 3.4 fold

B2: ADH6: Saccharomyces cerevisiae alcohol dehydrogenase ADH6, SEQ ID NO: 66 (protein, listed as Saccharomyces cerevisiae)
chain: MSYPEKFEGIAIQSHEDWKNPKKTKYDPKPFYDHDIDIKIEACGVCGSDIHCAAGHWGNMKMPLVVGHEIVGKVVKLGPKSNSGLKVGQRVGVGAQVFSCLECDRCKNDNEPYCTKFVTTYSQPYEDGYVSQGGYANYVRVHEHFVVPIPENIPSHLAAPLLCGGLTVYSPLVRNGCGPGKKVGIVGLGGIGSMGTLISKAMGAETYVISRSSRKREDAMKMGADHYIATLEEGDWGEKYFDTFDLIVVCASSLTDIDFNIMPKAMKVGGRIVSISIPEQHEMLSLKPYGLKAVSISYSALGSIKELNQLLKLVSEKDIKIWVETLPVGEAGVHEAFERMEKGDVRYRFTLVGYDKEFSD
activity on 2-methylbutanal [9]: active
Km ([10]; purified His-tagged enzyme, pH6.2, 0.5 mM NADPH): 360 µM
Vmax (cofactor oxidation rate) for 2-methyl butyraldehyde, fold higher than acetaldehyde ([10]; purified enzyme): 1.3 fold

B3: ADH7: Saccharomyces cerevisiae NADPH-dependent alcohol dehydrogenase ADH7, SEQ ID NO: 72 (protein, listed as Saccharomyces cerevisiae)
chain: MLYPEKFQGIGISNAKDWKHPKLVSFDPKPFGDHDVDVEIEACGICGSDFHIAVGNWGPVPENQILGHEIIGRVVKVGSKCHTGVKIGDRVGVGAQALACFECERCKSDNEQYCTNDHVLTMWTPYKDGYISQGGFASHVRLHEHFAIQIPENIPSPLAAPLLCGGITVFSPLLRNGCGPGKRVGIVGIGGIGHMGILLAKAMGAEVYAFSRGHSKREDSMKLGADHYIAMLEDKGWTEQYSNALDLLVVCSSSLSKVNFDSIVKIMKIGGSIVSIAAPEVNEKLVLKPLGLMGVSISSSAIGSRKEIEQLLKLVSEKNVKIWVEKLPISEEGVSHAFTRMESGDVKYRFTLVDYDKKFHK
activity on 2-methylbutanal [9]: active

B4: E. coli ilvB: Acetolactate synthase I, large subunit [Escherichia coli], SEQ ID NO: 37 (protein, listed as Escherichia coli)
chain: MASSGTTSTRKRFTGAEFIVHFLEQQGIKIVTGIPGGSILPVYDALSQSTQIRHILARHEQGAGFIAQGMARTDGKPAVCMACSGPGATNLVTAIADARLDSIPLICITGQVPASMIGTDAFQEVDTYGISIPITKHNYLVRHIEELPQVMSDAFRIAQSGRPGPVWIDIPKDVQTAVFEIETQPAMAEKAAAPAFSEESIRDAAAMINAAKRPVLYLGGGVINAPARVRELAEKAQLPTTMTLMALGMLPKAHPLSLGMLGMHGVRSTNYILQEADLLIVLGARFDDRAIGKTEQFCPNAKIIHVDIDRAELGKIKQPHVAIQADVDDVLAQLIPLVEAQPRAEWHQLVADLQREFPCPIPKACDPLSHYGLINAVAACVDDNAIITTDVGQHQMWTAQAYPLNRPRQWLTSGGLGTMGFGLPAAIGAALANPDRKVLCFSGDGSLMMNIQEMATASENQLDVKIILMNNEALGLVHQQQSLFYEQGVFAATYPGKINFMQIAAGFGLETCDLNNEADPQASLQEIINRPGPALIHVRIDAEEKVYPMVPPGAANTEMVGE
acetolactate synthase activity on pyruvate [11]: highest activity

B5: E. coli ilvG: Acetolactate synthase II, large subunit [Escherichia coli], SEQ ID NO: 39 (protein, listed as Escherichia coli)
chain: MNGAQWVVHALRAQGVNTVFGYPGGAIMPVYDALYDGGVEHLLCRHEQGAAMAAIGYARATGKTGVCIATSGPGATNLITGLADALLDSIPVVAITGQVSAPFIGTDAFQEVDILGLSLACTKHSFLVQSLEELPRIMAEAFDVASSGRPGPVLVDIPKDIQLASGDLEPWFTTVENEVTFPHAEVEQARQMLAKAQKPMLYVGGGVGMAQAVSALREFLAATKMPATCTLKGLGAVEADYPYYLGMLGMHGTKAANFAVQECDLLIAVGARFDDRVTGKLNTFAPHASVIHMDIDPAEMNKLRQAHVALQGDLNALLPALQQPLNINDWQQYCAQLRDEHTWRYDHPGDAIYAPLLLKQLSDRKPADCVVTTDVGQHQMWAAQHIAHTRPENFITSSGLGTMGFGLPAAVGAQVARPNDTVVCISGDGSFMMNVQELGTVKRKQLPLKIVLLDNQRLGMVRQWQQLFFQERYSETTLTDNPDFLMLASAFGIPGQHITRKDQVEAALDTMLNSDGPYLLHVSIDELENVWPLVPPGASNSEMLEKLS
acetolactate synthase activity on pyruvate [11]: minimum activity
